Values of other authors, collected in patent US20140234375A1, “Compositions and Methods for Eliciting an Immune Response to Escape Mutants of Targeted Therapies” (priority 2005, published 2014).

Experiments:
HCV NS3 serine protease = HCV NS3 serine protease (Hepatitis C virus genotype 1b, UniProt Q9WMX2); conditions: in vitro, major resistance mutation
HIV-1 variants = conditions: by 8 weeks of therapy
HIV gp41 = conditions: valine to alanine at amino acid 38 (V38A)

Compound: COc1ccc2c(O[C@@H]3C[C@H]4C(=O)N[C@]5(C(=O)O)C[C@H]5/C=C\CCCCC[C@H](NC(=O)OC5CCCC5)C(=O)N4C3)cc(-c3csc(NC(C)C)n3)nc2c1 [BILN 2061]
- frequency of Ala substitution (D168A) at amino acid 168 (HCV NS3 serine protease): 24%
- frequency of Val substitution (D168V) at amino acid 168 (HCV NS3 serine protease): 64%

Compound: Cc1ccnc2c1NC(=O)c1cccnc1N2C1CC1 [Nevirapine, nevirapine]
- decrease in susceptibility of patient isolates (HIV-1 variants): greater than 100 fold

Compound: CCC[C@H](NC(=O)[C@@H]1[C@H]2CCC[C@H]2CN1C(=O)[C@@H](NC(=O)[C@@H](NC(=O)c1cnccn1)C1CCCCC1)C(C)(C)C)C(=O)C(=O)NC1CC1 [VX-950]
- frequency of Ser substitution (A156S) at amino acid 156 (HCV NS3 serine protease; share of samples): 79%

Compound: enfuvirtide
- resistance to enfuvirtide (HIV gp41): 45 fold
